This note sets out measurements from US4613596A, “Amino methyl furans and pharmaceutical compositions” (Magis Farmaceutrici s.r.l., priority 1982, dated 1986).

A short description of data set [1]: Acute toxicity (LD50) in mouse. The data set is classed as in vivo. As to conditions: in vivo, 10 days observation. How it is done:
(§1) Acute toxicity was studied in male and female mice of Swiss stock, and in male and female albino rats of Wistar stock, by administering the active principle orally, intravenously and intramuscularly.
(§2) For each method of administration, doses in geometrical progression were administered to 10 animals for each dose over a period of observation of 10 days.
(§3) On termination of the period of observation, the LD50 and the relative reliability limits were calculated by the method of Litchfield and Wilcoxon (Pharmacol. Exp. Ther., 96-19, 1949).

Data set [2] can be described thus: Acute toxicity (LD50) in rat. The data set is classed as in vivo. The note with it: in vivo, 10 days observation. Here is the method: as §1, §2, §3
The next data set has as its system mice of Swiss stock. The experiment in a line: Acute toxicity (LD50) in mouse. As to conditions: 10 days observation; for LD50, mouse, intram. admin.: intramuscular; for LD50, mouse, intrav. admin.: intravenous; for LD50, mouse, oral admin.: Litchfield and Wilcoxon. The data set is classed as in vivo. How it is done:
as §1, §2, §3

Data set [3] has as its system albino rats of Wistar stock. The experiment in a line: Acute toxicity (LD50) in rat. As to conditions: 10 days observation; for LD50, rat, intram. admin.: intramuscular; for LD50, rat, intrav. admin.: intravenous. Format: in vivo. How it is done: as §1, §2, §3
Data set [4] relates to gastric ulcers induced by the ligature of the pylorus. As to the kind of experiment: Gastric ulcers induced by ligature of the pylorus. The note with it: oral, one hour after operation; compounds and ranitidine 1, 3, 10, 30 mg/kg; cimetidine 3, 10, 30, 100 mg/kg. The data set is classed as in vivo, rat (Sprague Dawley). How it is done:
To study the effect of the new compounds according to the present invention, 50 male and female rats of Sprague Dawley stock weighing approximately 200 grams were used for each compound examined.
The animals, under diet, were subjected to legature of the pylorus.
One hour after this operation, the animals were treated orally either with doses of 1, 3, 10 and 30 mg/kg of the examined compounds, or with doses of 3, 10, 30 and 100 mg/kg of cimetidine, or with doses of 1, 3, 10 and 30 mg/kg of ranitidine.

Where [5] appears, read: im, intramuscular, read-out: LD50, mouse, intram. admin.
[6] abbreviates: intravenous, read-out: LD50, mouse, intrav. admin.
Setting [7] is: oral, Litchfield and Wilcoxon, read-out: LD50, mouse, oral admin.
The mark [8] stands for this setting: im, intramuscular, read-out: LD50, rat, intram. admin.
The mark [9] stands for this setting: intravenous, read-out: LD50, rat, intrav. admin.
[10] abbreviates: oral, read-out: LD50, rat, oral admin.

By LD50 is commonly meant the dose at which mortality reaches 50%. For the compound `CN(C)Cc1ccc(CSCCNC(=C[N+](=O)[O-])N2CCCCC2)o1`, the LD50 at 240 h in data set [1] (setting [5]) came out at 300 mg/kg; in data set [1] (setting [6]), 90 mg/kg; in data set [1] (setting [7]) it was 2600 mg/kg; in data set [2] (setting [8]), 2100 mg/kg; in data set [2] (setting [9]) it was 100 mg/kg.

Turning to `CN(C)Cc1ccc(CSCCNC(=C[N+](=O)[O-])N[C@H]2C[C@H]3CC[C@@H]2C3)o1` (relative stereo) [AU/019], the LD50 at 240 h in data set [1] (setting [5]) amounted to 300 mg/kg; in data set [1] (setting [6]), 100 mg/kg; in data set [1] (setting [7]), 2600 mg/kg; in data set [2] (setting [8]), 2100 mg/kg; in data set [2] (setting [9]), 120 mg/kg.

With `CC1CCN(C(=C[N+](=O)[O-])NCCSCc2ccc(CN(C)C)o2)CC1` [AU/002, 1-N-[2-[[5-[(dimethylamino)methyl]furfuryl]thio]ethyl]amino-1-(4-methyl-piperidino)-2-nitro-ethene], the LD50 at 240 h came out at 320 mg/kg in data set [1] (setting [5]); 100 mg/kg in data set [1] (setting [6]); 2700 mg/kg in data set [1] (setting [7]); 2000 mg/kg in data set [2] (setting [8]); 100 mg/kg in data set [2] (setting [9]).

Regarding `CCN1CCCC(NC(=C[N+](=O)[O-])NCCSCc2ccc(CN(C)C)o2)C1` (stereo not drawn) [AU/003], the LD50 at 240 h in data set [1] (setting [5]) is 300 mg/kg; in data set [1] (setting [6]) it was 90 mg/kg; in data set [1] (setting [7]) it was 2800 mg/kg; in data set [2] (setting [8]), 2200 mg/kg; in data set [2] (setting [9]), 100 mg/kg.

As for `CN(C)Cc1ccc(CSCCNC(=C[N+](=O)[O-])N2CCN(CCO)CC2)o1` [AU/004, 1-N-[2-[[5-[(dimethylamino)methyl]furfuryl]thio]ethyl]-amino-1-4-(2-hydroxyethyl)-1-piperazino ethene], the median lethal dose (LD50) at 240 h stood at 300 mg/kg in data set [1] (setting [5]); 95 mg/kg in data set [1] (setting [6]); 2700 mg/kg in data set [1] (setting [7]); 2000 mg/kg in data set [2] (setting [8]); 110 mg/kg in data set [2] (setting [9]).

As to `CN(C)Cc1ccc(CSCCNC(=C[N+](=O)[O-])N2CCC(Cc3ccccc3)CC2)o1` [AU/005, 1-N-[2-[[5-[(dimethylamino)methyl]furfuryl]thio]ethyl]-amino-1-(4-benzyl-piperidino)-2-nitroethene], the LD50 at 240 h turned out to be 300 mg/kg in data set [1] (setting [5]); 95 mg/kg in data set [1] (setting [6]); 2700 mg/kg in data set [1] (setting [7]); 2100 mg/kg in data set [2] (setting [8]); 110 mg/kg in data set [2] (setting [9]); 5500 mg/kg in data set [2] (setting [10]).

Regarding `CN(C)Cc1ccc(CSCCNC(=C[N+](=O)[O-])N2CCN(Cc3ccccc3)CC2)o1` [AU/006, 1-N-[2-[[5-[(dimethylamino)methyl]furfuryl]thio]ethyl]amino-1-(4-benzyl-piperazino)-2-nitroethene], the LD50 at 240 h was found to be 300 mg/kg in data set [1] (setting [5]); 90 mg/kg in data set [1] (setting [6]); 2700 mg/kg in data set [1] (setting [7]); 2100 mg/kg in data set [2] (setting [8]); 100 mg/kg in data set [2] (setting [9]).

On to `CN(C)Cc1ccc(CSCCNC(=C[N+](=O)[O-])N2CC2)o1` [AU/007, 1-N-[2-[[5-[(dimethylamino)methyl]furfuryl]thio]ethyl]amino-1-ethyleneimino-2-nitroethene], for which the median lethal dose (LD50) at 240 h in data set [1] (setting [5]) came out at 310 mg/kg; in data set [1] (setting [6]), 100 mg/kg; in data set [1] (setting [7]), 2800 mg/kg; in data set [2] (setting [8]), 2100 mg/kg; in data set [2] (setting [9]), 100 mg/kg.

`CN(C)Cc1ccc(CSCCNC(=C[N+](=O)[O-])N2CCC2)o1` [AU/008, 1-N-[2-[[5-[(dimethylamino)methyl]furfuryl]thio]ethyl]amino-1-cyclopropyleneimino-2-nitroethene]: the LD50 at 240 h stood at 310 mg/kg in data set [1] (setting [5]); 100 mg/kg in data set [1] (setting [6]); 2600 mg/kg in data set [1] (setting [7]); 2200 mg/kg in data set [2] (setting [8]); 100 mg/kg in data set [2] (setting [9]).

On to `CN(C)Cc1ccc(CSCCNC(=C[N+](=O)[O-])NC2CCCCC2)o1` [AU/009, N-[2-[[5-[(dimethylamino)methyl]furfuryl]thio]ethyl]-N'-(cyclohexyl)-2-nitro-1,1-ethenediamine], for which the LD50 at 240 h worked out at 300 mg/kg in data set [1] (setting [5]); 100 mg/kg in data set [1] (setting [6]); 2600 mg/kg in data set [1] (setting [7]); 2200 mg/kg in data set [2] (setting [8]); 110 mg/kg in data set [2] (setting [9]).

With `CN(C)Cc1ccc(CSCCNC(=C[N+](=O)[O-])NC2=CCC=CC2)o1` [AU/010, N-[2-[[5-[(dimethylamino)methyl]furfuryl]thio]ethyl]-N'-(1,4-ciclohexadienyl)-2-nitro-1,1-ethenediamine], in the data set with mice of Swiss stock, the “LD50, mouse, intram. admin.” value is 310 mg/kg; the “LD50, mouse, intrav. admin.” value is on record as 95 mg/kg; the “LD50, mouse, oral admin.” value turned out to be 2700 mg/kg. Further, in data set [3], the “LD50, rat, intram. admin.” value is given as 2200 mg/kg and the “LD50, rat, intrav. admin.” value was 110 mg/kg.

On to `CN(C)Cc1ccc(CSCCNC(=C[N+](=O)[O-])NCC2=CCC=CC2)o1` [AU/011, N-[2-[[5-[(dimethylamino)methyl]furfuryl]thio]ethyl]-N'-(1,4-cyclohexadienyl-2-methyl)-2-nitro-1,1-ethenediamine], for which, in the data set with mice of Swiss stock, the “LD50, mouse, intram. admin.” value is 310 mg/kg; the “LD50, mouse, intrav. admin.” value turned out to be 90 mg/kg; the “LD50, mouse, oral admin.” value is 2700 mg/kg. Also, in data set [3], the “LD50, rat, intram. admin.” value was determined as 2100 mg/kg and the “LD50, rat, intrav. admin.” value amounted to 110 mg/kg. Besides, the “LD50, rat, oral admin.” value in data set [3] (oral) worked out at 5510.0 mg/kg.

As for `CN(C)Cc1ccc(CSCCNC(=C[N+](=O)[O-])N2CCCCCC2)o1` [AU/013, 1-N-[2-[[5-[(dimethylamino)methyl]furfuryl]thio]ethyl]-amino-1-hexamethyleneimino-2-nitroethene], the LD50 at 240 h in data set [1] (setting [5]) stood at 300 mg/kg; in data set [1] (setting [6]) it was 90 mg/kg; in data set [1] (setting [7]) it was 2700 mg/kg; in data set [2] (setting [8]), 2100 mg/kg; in data set [2] (setting [9]), 100 mg/kg; in data set [2] (setting [10]) it was 5530 mg/kg.

`CN(C)Cc1ccc(CSCCNC(=C[N+](=O)[O-])NN2CCCCCC2)o1` [AU/014, N-[2-[[5-[(dimethylamino)methyl]furfuryl]thio]ethyl]-N'-(hexamethyleneimino)-2-nitro-1,1-ethenediamine]: the LD50 at 240 h in data set [1] (setting [5]) is 300 mg/kg; in data set [1] (setting [6]) it was 90 mg/kg; in data set [1] (setting [7]) it was 2600 mg/kg; in data set [2] (setting [8]), 2200 mg/kg; in data set [2] (setting [9]), 100 mg/kg.

Regarding `CN(C)Cc1ccc(CSCCNC(=C[N+](=O)[O-])NC2CCCCCC2)o1` [AU/015, N-[2-[[5-[(dimethylamino)methyl]furfuryl]thio]ethyl]-N'-cycloheptyl-2-nitro-1,1-ethenediamine], the LD50 at 240 h in data set [1] (setting [5]) came to 300 mg/kg; in data set [1] (setting [6]) it was 100 mg/kg; in data set [1] (setting [7]), 2800 mg/kg; in data set [2] (setting [8]) it was 2200 mg/kg; in data set [2] (setting [9]) it was 100 mg/kg.

On to `CN(C)Cc1ccc(CSCCNC(=C[N+](=O)[O-])NC2CCCC2)o1` [AU/016, N-[2-[[5-[(dimethylamino)methyl]furfuryl]thio]ethyl]-N'-cyclopentyl-2-nitro-1,1-ethenediamine], for which the LD50 at 240 h in data set [1] (setting [5]) was 300 mg/kg; in data set [1] (setting [6]), 90 mg/kg; in data set [1] (setting [7]), 2700 mg/kg; in data set [2] (setting [8]), 2200 mg/kg; in data set [2] (setting [9]) it was 100 mg/kg.

Take `CN(C)Cc1ccc(CSCCNC(=C[N+](=O)[O-])N2CCCC2)o1` [AU/017, 1-N-[2-[[5-[(dimethylamino)methyl]furfuryl]thio]ethyl]-amino-1-pyrrolidino-2-nitroethene]: the median lethal dose (LD50) at 240 h in data set [1] (setting [5]) was 300 mg/kg; in data set [1] (setting [6]), 100 mg/kg; in data set [1] (setting [7]), 2600 mg/kg; in data set [2] (setting [8]), 2200 mg/kg; in data set [2] (setting [9]) it was 100 mg/kg.

For `CN(C)Cc1ccc(CSCCNC(=C[N+](=O)[O-])N2CCOCC2)o1` [AU/018, 1-N-[2-[[5-[(dimethylamino)methyl]furfuryl]thio]ethyl]-amino-1-morpholino-2-nitroethene], the LD50 at 240 h came out at 350 mg/kg in data set [1] (setting [5]); 90 mg/kg in data set [1] (setting [6]); 2700 mg/kg in data set [1] (setting [7]); 2200 mg/kg in data set [2] (setting [8]); 100 mg/kg in data set [2] (setting [9]).

As to `CN(C)Cc1ccc(CSCCNC(=C[N+](=O)[O-])NC2CC3C=CC2C3)o1` (stereo not drawn) [AU/020], the LD50 at 240 h worked out at 300 mg/kg in data set [1] (setting [5]); 110 mg/kg in data set [1] (setting [6]); 2700 mg/kg in data set [1] (setting [7]); 2100 mg/kg in data set [2] (setting [8]); 110 mg/kg in data set [2] (setting [9]).

Turning to `CN/C(=N/CCSCc1nc[nH]c1C)NC#N` [cimetidine], the “Inhibition of incidence of gastric ulcers induced by ligature of the pylorus” value in data set [4] is given as “significantly inhibit the incidence of gastric ulcers”.

In the case of `CNC(=C[N+](=O)[O-])NCCSCc1ccc(CN(C)C)o1` [ranitidine], in data set [4], the “Inhibition of incidence of gastric ulcers induced by ligature of the pylorus” value was “significantly inhibit the incidence of gastric ulcers”.

As to “N-[2-[[5-[(dimethylamino)methyl]furfuryl]thio]ethyl]-N'-(1,4-cyclohexadienyl-2-ethyl)-2-nitro-1,1-ethenediamine [AU/012]”, in the data set on mice of Swiss stock, the “LD50, mouse, intram. admin.” value was 300 mg/kg; the “LD50, mouse, intrav. admin.” value is 90 mg/kg; the “LD50, mouse, oral admin.” value was 2800 mg/kg. In data set [3], the “LD50, rat, intram. admin.” value was found to be 2100 mg/kg and the “LD50, rat, intrav. admin.” value came to 110 mg/kg.
